Data published in a melting point compilation (Tetko et al.).

| SMILES | melting point [°C] |
| --- | --- |
| Cc1ccc(S(=O)(=O)N(C)C)cc1C(=O)O | 173 to 175 |
| CCOC(=O)C(=O)CC(=O)c1ccc(Cl)cc1 | 62 to 64 |
| CCC(C)c1ccc(-n2c(S)nc3cc(Cl)ccc3c2=O)cc1 (configuration not stated) | 242 to 244 |
| O=Cc1cccc(OCC(F)(F)F)c1 | 29 to 31 |
| Cc1ccnc(O)c1C(=O)O | 229 to 231 |
| N#CCOc1ccc(CC(=O)O)cc1 | 111 to 113 |
| Cc1cc2ncc(SC(=O)N(C)C)cn2n1 | 144 to 146 |
| Cc1nn(Cc2ccc(Cl)cc2)c(C)c1C(=O)O | 188 to 190 |
| O=C(O)c1cnc(-c2ccccn2)s1 | 199 to 201 |
| O=C(O)CCc1ccc(S(=O)(=O)N2CCOCC2)cc1 | 160 to 162 |
| NNc1cc(Cl)ncn1 | 151 to 153 |
| Cn1ccnc1C(N)c1ccccc1F (configuration not stated) | 58 to 60 |
| Cc1c(C)n(Cc2ccco2)c2ncnc(N)c12 | 180 to 182 |
| O=C(O)c1cc([N+](=O)[O-])c(F)cc1I | 158 to 160 |
| CS(=O)(=O)c1c(F)cc(N)cc1F | 169 to 171 |
| Nc1ccc2nncn2c1 | 169 to 171 |
| COC(=O)c1cc(Br)cc(S(=O)(=O)Cl)c1 | 59 to 61 |
| Cc1cccc(C(=O)O)c1NC(=O)c1ccncc1 | 249 to 251 |
| O=C(c1ccccc1)c1cc(Br)ccc1F | 67 to 69 |
| CC(C)C(=O)Nc1ccc(O)cc1 | 158 to 160 |
| Cc1nnc2ccc(C#N)cn12 | 201 to 203 |
| COc1ccc(C(=O)N(C)C)cc1N | 119 to 121 |
| Nc1cccn(Cc2ccccc2)c1=O | 119 to 121 |
| O=C(O)CSc1nc(-c2ccccc2)no1 | 115 to 117 |
| Cc1c(C(C)N)cnn1-c1ccc(F)cc1 (configuration not stated) | 42 to 44 |
| O=C(O)c1ccc(C2SCCS2)cc1 | 166 to 168 |

| SMILES | melting point [°C] |
| --- | --- |
| CC1CCC(C(C)C)C(OC(=O)CSc2ccccc2C(=O)O)C1 (configuration not stated) | 137 to 139 |
| CNC(=O)CNC(=S)NN | 156 to 158 |
| NNC(=O)c1cc(-c2ccco2)nc2ccccc12 | 219 to 221 |
| CC1(C(=O)O)CCCN1C(=O)OCc1ccccc1 (configuration not stated) | 119 to 121 |
| O=C(O)C=CC1=CCCC1 | 147 to 149 |
| Cc1sc(NC(=O)C2CC2)c(C(=O)O)c1C | 148 to 152 |
| COc1ccc(C(=O)O)cc1S(=O)(=O)Nc1ccc(Br)cc1 | 257 to 259 |
| NC(=S)C1CC1 | 112 to 114 |
| Nc1ccc(Cl)c(C(=O)NCc2cccs2)c1 | 69 to 71 |
| CC(N)(CO)C1CCCCC1 (configuration not stated) | 80 to 82 |
| CC(CN1CCOCC1)C(=O)NN (configuration not stated) | 86 to 88 |
| O=C(O)CCNS(=O)(=O)c1ccccc1Cl | 128 to 130 |
| O=C1CC(Cc2ccc(F)cc2)C(=O)N1 (configuration not stated) | 107 to 109 |
| CC(C)Oc1c(F)cc(N)cc1F | 60 to 62 |
| CC1CCCN(c2ccccc2O)C1 (configuration not stated) | 44 to 46 |
| O=C(O)c1c(F)ccc(OC(F)F)c1F | 90 to 92 |
| CCOC(=O)c1sc(NC(=O)CCl)c(C(=O)OC(C)(C)C)c1C | 148 to 150 |
| Cc1cccc(NC(N)=S)c1 | 110 to 112 |
| NNC(=O)CSc1n[nH]c(=O)[nH]c1=O | 225 to 227 |
| O=C(O)c1c(F)ccc(S(=O)(=O)NC2CC2)c1F | 134 to 136 |
| NNC(=O)CN1CCCc2ccccc21 | 107 to 109 |
| COc1ccc(Br)cc1C(N)CO (configuration not stated) | 99 to 101 |
| N#Cc1ccc(Br)cc1[N+](=O)[O-] | 91 to 93 |
| O=C(O)/C=C/c1ccc2c(c1)CCO2 | 175 to 177 |
| Cn1ccc(C(=O)N2CCC(CO)CC2)cc1=O | 174 to 176 |
| O=C(O)CCNS(=O)(=O)c1ccc(Cl)c([N+](=O)[O-])c1 | 113 to 115 |

| SMILES | melting point [°C] |
| --- | --- |
| CC(C)(C)OC(=O)Nc1cnsn1 | 93 to 95 |
| O=[N+]([O-])c1ccc(S(=O)(=O)Cl)cn1 | 81 to 83 |
| CCOc1cccc(CNC(=O)CCl)c1 | 97 to 99 |
| CC1(C(=O)O)CCCc2ccccc21 (configuration not stated) | 113 to 115 |
| O=C1CC2(CCCCC2)C(=O)N1 | 132 to 140 |
| CC(Oc1ccc(C23CC4CC(CC(C4)C2)C3)cc1)C(=O)O (configuration not stated) | 153 to 155 |
| CCc1cnc(N)s1 | 54 to 56 |
| NC(=O)c1cccc(Oc2ccc(N)nc2)c1 | 162 to 164 |
| Cc1cccc(-n2c(C)cc(/C=C(\C#N)C(=O)O)c2C)c1 | 75 to 77 |
| Cc1cc(Cl)ccc1S(=O)(=O)Cl | 54 to 56 |
| O=[N+]([O-])c1ccc(N2CCC(CO)CC2)nc1 | 123 to 125 |
| Clc1nnc(-c2ccccn2)s1 | 105 to 107 |
| Cc1ccc([N+](=O)[O-])cc1NC(=O)CCCl | 155 to 157 |
| CC(C)(C)c1nn(-c2ccccc2)cc1C=O | 57 to 59 |
| Cc1cc(C)c(C(=O)O)o1 | 145 to 147 |
| Nc1cc(F)c(F)cc1N | 126 to 130 |
| Ic1ccc(OCc2ccncc2)cc1 | 152 to 154 |
| Cc1ncc(C=O)n1-c1ccccc1 | 64 to 66 |
| COc1ccc(N)cc1S(=O)(=O)N(C)C | 144 to 146 |
| O=[N+]([O-])c1cccc(-c2nnc(CCl)o2)c1 | 115 to 117 |
| N#Cc1ccc2ncc(C=O)n2c1 | 184 to 186 |
| CC(C)(C)c1cc(NC(=O)CBr)on1 | 139 to 141 |
| Nc1cc(C(=O)O)ccc1I | 209 to 211 |
| CC(C)c1ccc(S(=O)(=O)c2ccc(NN)cc2)cc1 | 191 to 193 |
| ONCc1ccc(F)cc1 | 59 to 61 |
| CC(C)(C)OC(=O)NC(CC#N)c1ccccc1 (configuration not stated) | 104 to 106 |

| SMILES | melting point [°C] |
| --- | --- |
| Cc1nc(N)sc1Cc1cccc(Br)c1 | 86 to 88 |
| COc1cccc(-c2nn(-c3ccc(C)cc3)cc2C(=O)O)c1 | 162 to 164 |
| O=C(CCl)c1ccc2c(c1)COC2 | 109 to 111 |
| NC(=O)c1ccc(I)cc1 | 216 to 218 |
| NC(=O)CNC(=O)c1cccc(N)c1 | 170 to 172 |
| O=C(O)c1n[nH]c2ccccc2c1=O | 259 to 261 |
| CS(=O)(=O)Cc1c(C(=O)O)oc2ccccc12 | 218 to 220 |
| O=C(O)c1cc2ccccc2c2cccnc12 | 200 to 202 |
| O=Cc1cc(-c2ccccc2)ccc1O | 99 to 101 |
| COc1ccccc1C(C)NC(=O)C(C)Cl (configuration not stated) | 109 to 111 |
| Cc1ccc(N2CC(C(=O)O)CC2=O)cc1 (configuration not stated) | 184 to 186 |
| Cc1n[nH]c(C2CNCCO2)n1 (configuration not stated) | 104 to 106 |
| O=C(O)CCCCCCNC(=O)OCc1ccccc1 | 89 to 91 |
| Cc1ccc(-n2nc(C(=O)O)c3ccccc3c2=O)cc1Cl | 227 to 229 |
| O=C(O)C1=CCCS1 | 126 to 128 |
| Cc1cc(N2CCOCC2)ccc1N | 89 to 91 |
| NS(=O)(=O)c1ccc2c(c1)COC2 | 146 to 148 |
| O=c1[nH]c2ccccc2c(O)c1[N+](=O)[O-] | 209 to 211 |
| CS(=O)(=O)c1ccc(Cl)c(C(=O)O)c1 | 183 to 185 |
| CCOC(=O)c1c(N)sc2c1CCN(C(C)C)C2 | 81 to 83 |
| O=C1CCc2c(Cl)cc(Br)cc21 | 124 to 126 |
| O=Cc1nc(-c2cc(Cl)ccc2Cl)cs1 | 112 to 114 |
| COc1cc(C(C)=O)ccc1OC(F)F | 65 to 67 |
| O=C(O)C1CCCCC1C(=O)NC1CCS(=O)(=O)C1 (configuration not stated) | 137 to 139 |
